The first test deals with human SGLT1 (Homo sapiens (Human), UniProt P13866). Briefly: SGLT1 inhibitory activity: 14C-AMG uptake into CHO-K1 cell line stably expressing human SGLT1. Type of test: cell-based. To be noted: 14C-AMG uptake, CHO-K1 cells expressing human SGLT1. As for the experimental part:
SGLT1 inhibitory activity of a test compound (IC50 value) was calculated based on an amount of intake into a cell of labeled α-methyl-D-glucopyranoside (^14C-AMG) which is transported by SGLT1.
1) Construction of Human SGLT1 Expression Plasmid
A DNA fragment containing human SGLT1, wherein NheI recognition and cleavage sequence was added upstream of a Kozac consensus sequence of the vector; and a stop codon (TAG) and a SalI recognition and cleavage sequence was added just downstream of a coding region of the human SGLT1, was amplified by PCR using pCMV6-hSGLT1 (OriGene) as a template. The purified DNA fragment was cleaved by restriction enzymes NheI and SalI, and the obtained fragment was ligated into pcDNA3.1 (+) which was cleaved by NheI and XhoI to construct human SGLT1 expression plasmid.
2) Establishment of Stable Cell Lines Expressing Human SGLT1
A human SGLT1 expression plasmid pcDNA-hSGLT1 was transfected into CHO-K1 cells by Lipofectamine-2000 (Invitrogen). The cells were cultured in the presence of G418 (Nakalai tesque) and drug-resistant cells were selected. A cell line having the highest S/B ratio of an amount of ^14C-AMG uptake per cell treated by solvent to an amount of ^14C-AMG uptake per cell treated by phlorizin (SGLT inhibitor) was selected from the drug-resistant cells as a stable cell lines expressing human SGLT1.
3) Evaluation of SGLT1 Inhibitory Activity
The stable cell line expressing human SGLT1 was seeded at 5×10^4 cells/well on BioCoat™ Poly-D-Lysine 96 well plate with Lid (Becton Dickinson and Company) and cultured at 37° C. under 5% CO2 overnight. The medium was replaced with 100 μL/well of a Na (−) buffer (140 mM choline chloride, 2 mM KCl, 1 mM MgCl2, 1 mM CaCl2, 10 mM HEPES, 5 mM Tris, pH7.4) followed by incubation for 20 minutes at 37° C. under 5% CO2. After removing the Na (−) buffer, a test compound solution which was prepared from Na (+) buffer (140 mM NaCl, 2 mM KCl, 1 mM MgCl2, 1 mM CaCl2, 10 mM HEPES, 5 mM Tris, pH7.4) containing BSA was added thereto at 40 μL/well. In addition, Na (+) buffer containing 8 kBq of ^14C-AMG and 2 mM AMG was added thereto at 40 μL/well, and was mixed well. Na (−) buffer containing BSA was added to a blank well at 40 μL/well and additionally adding a Na (+) buffer containing 8 kBq of ^14C-AMG and 2 mM AMG, and was mixed well. Cells were incubated for 1 hour at 37° C. under 5% CO2. After the reaction, the cells were washed twice with 100 μL/well of iced wash buffer (100 mM AMG, 140 mM choline chloride, 2 mM KCl, 1 mM MgCl2, 1 mM CaCl2, 10 mM HEPES, 5 mM Tris, pH7.4), then lysed in 50 μL/well of a 0.2N aqueous solution of NaOH. The cell lysate was transferred to OptiPlate96 (Perkin-Elmer) and 100 μL/well of MicroScint-40 (Perkin-Elmer) was dispensed. The radioactivity was counted by TOPCOUNT NXT (Perkin-Elmer).
A data was obtained by deducting the average value (CPM) of blank wells from the average value (CPM) of each treated well. The inhibition ratio (%) was calculated by the following formula: inhibition rate (%)=[(A−B)/A]×100, where A is a data of the solvent control, and B is a data of a test compound.
Sequence of human SGLT1 (P13866 whole entry): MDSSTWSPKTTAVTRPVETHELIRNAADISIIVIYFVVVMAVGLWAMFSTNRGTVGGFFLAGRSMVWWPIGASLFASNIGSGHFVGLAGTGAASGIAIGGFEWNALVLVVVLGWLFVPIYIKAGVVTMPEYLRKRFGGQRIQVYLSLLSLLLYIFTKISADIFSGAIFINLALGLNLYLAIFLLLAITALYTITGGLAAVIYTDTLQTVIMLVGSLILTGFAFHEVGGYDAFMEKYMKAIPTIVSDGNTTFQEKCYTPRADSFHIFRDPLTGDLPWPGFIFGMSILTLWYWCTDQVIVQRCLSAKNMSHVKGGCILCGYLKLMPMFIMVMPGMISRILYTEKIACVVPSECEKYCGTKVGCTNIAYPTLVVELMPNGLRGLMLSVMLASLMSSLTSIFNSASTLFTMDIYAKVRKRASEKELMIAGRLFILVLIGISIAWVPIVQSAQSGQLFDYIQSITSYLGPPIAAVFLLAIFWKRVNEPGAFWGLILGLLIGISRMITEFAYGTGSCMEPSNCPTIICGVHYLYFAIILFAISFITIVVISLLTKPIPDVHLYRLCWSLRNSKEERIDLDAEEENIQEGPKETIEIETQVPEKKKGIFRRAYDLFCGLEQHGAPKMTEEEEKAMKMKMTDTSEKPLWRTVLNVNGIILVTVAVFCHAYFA
For the compound `C[C@H]1C(=O)NC[C@@H]1C(=O)Nc1cc(-c2cccc(OC(F)(F)F)c2)n(-c2ccccc2)n1` [Example 1, (3R,4R)-4-methyl-5-oxopyrrolidine-3-carboxylic acid[1-phenyl-5-(3-trifluoromethoxyphenyl)-1H-pyrazol-3-yl]amide], the IC50 stood at 0.004 µM. The same measure, in the same setting: with `C[C@H]1C(=O)NC[C@@H]1C(=O)Nc1cc(-c2cccc(OC(F)(F)F)c2)n(-c2ccc(F)cc2)n1` [Example 2, (3R,4R)-4-methyl-5-oxopyrrolidine-3-carboxylic acid[1-(4-fluorophenyl)-5-(3-(trifluoromethoxy)phenyl)-1H-pyrazol-3-yl]amide] the figure was 0.0034 µM; with `C[C@H]1C(=O)NC[C@@H]1C(=O)Nc1cc(-c2cccc(OC(F)(F)F)c2)n(-c2cccc(F)c2)n1` [Example 3, (3R,4R)-4-methyl-5-oxopyrrolidine-3-carboxylic acid[1-(3-fluorophenyl)-5-(3-(trifluoromethoxy)phenyl)-1H-pyrazol-3-yl]amide], 0.0062 µM; with `O=C1C[C@@H](C(=O)Nc2cc(-c3cccc(OC(F)(F)F)c3)n(-c3ccccc3)n2)CN1` [Example 4, (R)-5-oxopyrrolidine-3-carboxylic acid[1-phenyl-5-(3-trifluoromethoxyphenyl)-1H-pyrazol-3-yl]amide], 0.0086 µM. In the case of `CCCc1cccc(-c2cc(NC(=O)[C@H]3CNC(=O)N3C)nn2-c2ccccc2)c1` [Example 6, (R)-3-methyl-2-oxoimidazolidine-4-carboxylic acid [1-phenyl-5-(3-propylphenyl)-1H-pyrazol-3-yl]amide], the 50% inhibitory concentration (IC50) was determined as 0.0072 µM. In turn, `CCCc1cccc(-c2cc(NC(=O)[C@H]3CNC(=O)N3)nn2-c2ccccc2)c1` [Example 8, (R)-2-oxoimidazolidine-4-carboxylic acid[1-phenyl-5-(3-propylphenyl)-1H-pyrazol-3-yl]amide] showed a 50% inhibitory concentration (IC50) of 0.02 µM. On the same count and under the same terms, with `CCCc1cccc(-c2cc(NC(=O)[C@H]3CNC(=O)C3)nn2-c2ccccc2)c1` [Example 22] the figure was 0.0047 µM; with `CCCc1cccc(-c2cc(NC(=O)[C@@H]3CNC(=O)C3)nn2-c2ccccc2)c1` [Example 23], 0.0074 µM; with `CC(C)(C)c1cccc(-c2cc(NC(=O)[C@H]3CNC(=O)C3)nn2-c2ccccc2)c1` [Example 25], 0.0018 µM. `CC(C)(C)c1cccc(-c2cc(NC(=O)[C@@H]3CNC(=O)C3)nn2-c2ccccc2)c1` [Example 26]: half-maximal inhibition (IC50) was put at 0.0035 µM. Compound `O=C1C[C@@H](C(=O)Nc2cc(-c3cccc(C(F)(F)F)c3)n(-c3ccccc3)n2)CN1` [Example 27] yielded a concentration for half-maximal inhibition (IC50) of 0.023 µM.

`O=C1C[C@H](C(=O)Nc2cc(-c3cccc(C(F)(F)F)c3)n(-c3ccccc3)n2)CN1` [Example 28] gave a half-inhibitory concentration (IC50) of 0.052 µM. As for `O=C1C[C@H](C(=O)Nc2cc(-c3cccc(OC(F)(F)F)c3)n(-c3ccccc3)n2)CN1` [Example 29], the IC50 was found to be 0.024 µM. The same measure, in the same setting: the same measure for `CCOc1cccc(-c2cc(NC(=O)[C@H]3CNC(=O)C3)nn2-c2ccccc2)c1` [Example 30]: 0.095 µM.

`CCOc1cccc(-c2cc(NC(=O)[C@@H]3CNC(=O)C3)nn2-c2ccccc2)c1` [Example 31]: the 50% inhibitory concentration (IC50) came out at 0.27 µM. With `CCCc1cccc(-c2cc(NC(=O)[C@H]3CNC(=O)C3)nn2-c2ccc(F)cc2)c1` [Example 34], the half-inhibitory concentration (IC50) stood at 0.0068 µM. In turn, `CCCc1cccc(-c2cc(NC(=O)[C@@H]3CNC(=O)C3)nn2-c2ccc(F)cc2)c1` [Example 35] had a 50% inhibitory concentration (IC50) of 0.015 µM. `CCCc1cccc(-c2cc(NC(=O)[C@H]3CNC(=O)C3)nn2-c2ccc(Cl)cc2)c1` [Example 36] displayed a concentration for half-maximal inhibition (IC50) of 0.0094 µM.

Compound `CCCc1cccc(-c2cc(NC(=O)[C@@H]3CNC(=O)C3)nn2-c2ccc(Cl)cc2)c1` [Example 37] gave an IC50 of 0.016 µM.

In the case of `O=C1C[C@@H](C(=O)Nc2cc(-c3cccc(Cl)c3)n(-c3ccccc3)n2)CN1` [Example 38], the IC50 amounted to 0.13 µM. Take `O=C1C[C@H](C(=O)Nc2cc(-c3cccc(Cl)c3)n(-c3ccccc3)n2)CN1` [Example 39]: the 50% inhibitory concentration (IC50) was determined as 0.35 µM.

`O=C1C[C@@H](C(=O)Nc2cc(C3CCCCC3)n(-c3ccccc3)n2)CN1` [Example 40] registered a 50% inhibitory concentration (IC50) of 0.65 µM.

`O=C1C[C@H](C(=O)Nc2cc(C3CCCCC3)n(-c3ccccc3)n2)CN1` [Example 41]: the 50% inhibitory concentration (IC50) came out at 1.9 µM. Take `CCc1cccc(-c2cc(NC(=O)[C@H]3CNC(=O)C3)nn2-c2ccccc2)c1` [Example 43]: inhibition was half-maximal at 0.011 µM (IC50).

Consider `CCc1cccc(-c2cc(NC(=O)[C@@H]3CNC(=O)C3)nn2-c2ccccc2)c1` [Example 44], for which the IC50 was 0.034 µM. Same read-out and setting: with `CCCCc1cccc(-c2cc(NC(=O)[C@H]3CNC(=O)C3)nn2-c2ccccc2)c1` [Example 45] the figure was 0.0043 µM; with `CCCCc1cccc(-c2cc(NC(=O)[C@@H]3CNC(=O)C3)nn2-c2ccccc2)c1` [Example 46], 0.0037 µM. For `O=C1C[C@@H](C(=O)Nc2cc(C3=CCCCC3)n(-c3ccccc3)n2)CN1` [Example 47], the IC50 was 0.42 µM. Turning to `CCCc1cccc(-c2cc(NC(=O)[C@H]3CNC(=O)C3)nn2-c2ccc(C)cc2)c1` [Example 48], it took 0.0035 µM to reach half-maximal inhibition (IC50).

The compound `CCCc1cccc(-c2cc(NC(=O)[C@@H]3CNC(=O)C3)nn2-c2ccc(C)cc2)c1` [Example 49] yielded an IC50 of 0.012 µM. Regarding `CCCc1cc(-c2cc(NC(=O)[C@H]3CNC(=O)C3)nn2-c2ccccc2)ccc1F` [Example 50], the half-inhibitory concentration (IC50) is 0.022 µM. In turn, `CCCc1cc(-c2cc(NC(=O)[C@@H]3CNC(=O)C3)nn2-c2ccccc2)ccc1F` [Example 51] had an IC50 of 0.08 µM. `CCC(C)(C)c1cccc(-c2cc(NC(=O)[C@H]3CNC(=O)C3)nn2-c2ccccc2)c1` [Example 52] came in with an IC50 of 0.0037 µM. On the same count and under the same terms, with `CCC(C)(C)c1cccc(-c2cc(NC(=O)[C@@H]3CNC(=O)C3)nn2-c2ccccc2)c1` [Example 53] the figure was 0.0038 µM. Same read-out and setting: with `CC(C)c1cccc(-c2cc(NC(=O)[C@H]3CNC(=O)C3)nn2-c2ccccc2)c1` [Example 54] the figure was 0.01 µM. The compound `CC(C)c1cccc(-c2cc(NC(=O)[C@@H]3CNC(=O)C3)nn2-c2ccccc2)c1` [Example 55] had an IC50 of 0.018 µM. `Cc1ccccc1-c1cc(NC(=O)[C@H]2CNC(=O)C2)nn1-c1ccccc1` [Example 56] showed an IC50 of 14.3 µM.

For the compound `Cc1cccc(-c2cc(NC(=O)[C@H]3CNC(=O)C3)nn2-c2ccccc2)c1` [Example 57], the midpoint of inhibition, the IC50, lay at 0.23 µM. Regarding `Cc1ccc(-c2cc(NC(=O)[C@H]3CNC(=O)C3)nn2-c2ccccc2)cc1` [Example 58], the concentration for half-maximal inhibition (IC50) was 3.5 µM. `O=C1C[C@@H](C(=O)Nc2cc(C3CCCCCC3)n(-c3ccccc3)n2)CN1` [Example 62] came in with an IC50 of 0.47 µM. Turning to `O=C1C[C@@H](C(=O)Nc2cc(C3CCCC3)n(-c3ccccc3)n2)CN1` [Example 63], it took 2.4 µM to reach half-maximal inhibition (IC50). For the compound `CCCc1cccc(-c2cc(NC(=O)[C@H]3CNC(=O)C3)nn2C2CCCC2)c1` [Example 64], the 50% inhibitory concentration (IC50) came to 0.012 µM. Take `CCCc1cccc(-c2cc(NC(=O)[C@@H]3CNC(=O)C3)nn2C2CCCC2)c1` [Example 65]: half-maximal inhibition (IC50) required 0.04 µM. For the compound `CCCc1cccc(-c2cc(NC(=O)[C@H]3CNC(=O)C3)nn2CC(F)(F)F)c1` [Example 66], 0.21 µM corresponded to half-maximal inhibition (IC50).

With `CCCc1cccc(-c2cc(NC(=O)[C@H]3CNC(=O)C3)nn2C2CCCCCC2)c1` [Example 68], the IC50 amounted to 0.0067 µM. Same read-out and setting: the same measure for `CCCc1cccc(-c2cc(NC(=O)[C@@H]3CNC(=O)C3)nn2C2CCCCCC2)c1` [Example 69]: 0.018 µM; for `CC(C)Cc1cccc(-c2cc(NC(=O)[C@H]3CNC(=O)C3)nn2-c2ccccc2)c1` [Example 70]: 0.0016 µM.

The same test, now with this note: CHO-K1, at 0.1 uM.
As for `CCCc1cccc(-c2cc(NC(=O)[C@@H]3CNC(=O)C3)nn2CC(F)(F)F)c1` [Example 67], the inhibition at 0.1 µM is 29%.

The record behind these values is US8846746B2, “Pyrazole compound and pharmaceutical use thereof” (Japan Tobacco Inc., priority 2011, dated 2014).
